The test system of one data set is ECV. Description: Proliferation assay using bladder cancer cell lines, ECV. It counts as cell-based, human. As to conditions: 72 h culture, CyQuant proliferation assay.
In a further data set the test system is RT112. Description: Proliferation assay using bladder cancer cell lines, RT112. It counts as cell-based, human. Conditions: 72 h culture, CyQuant proliferation assay. As for the experimental part:
(§1) Bladder cancer cell lines (T24, RT112, HT1376 and RT4 are human bladder cancer cell lines; NHEK are normal human keratinocytes) were obtained from the European Collection of Cell Cultures (Salisbury, UK). Cells were plated at 3×10^3 per well, in flat bottomed 96-well plates in 100 μl of DMEM medium containing: 5% Fetal Clone I, 50 μg/l gentamicin, 1 mM sodium pyruvate and 1% non-essential amino acids. After culturing for 24 h at 37° C. in 5% CO2, to allow cells to adhere to the plates, VDR ligands (compounds (2), (4), (5) and other vitamin D3 analogs as shown in Table 4) were added at concentrations ranging from 100 μM to 0.3 μM in 100 μl of above-mentioned complete medium. After a further 72 h of culture, cell proliferation was measured using a fluorescence-based proliferation assay kit. (CyQuant Cell Proliferation Assay Kit, Molecular Probes, Eugene, Oreg., USA). The IC50 was calculated from the regression curve of the titration data.

The test system of a further data set is HT 1376. Description: Proliferation assay using bladder cancer cell lines, HT1376. Conditions: 72 h culture, CyQuant proliferation assay. It counts as cell-based, human. As to the method: as §1
Another data set concerns RT4. Description: Proliferation assay using bladder cancer cell lines, RT4. In kind it is cell-based, human. Conditions: 72 h culture, CyQuant proliferation assay. As to the method:
as §1

A further data set has as its system NHEK. Description: Proliferation assay, NHEK normal human keratinocytes. It counts as cell-based. Conditions: 72 h culture, CyQuant proliferation assay. As for the experimental part: as §1
Another data set has as its system Human BPH cells. Description: BPH cell proliferation assay (testosterone-induced). In kind it is cell-based. Conditions: 48 h. As for the experimental part:
Human BPH cells, prepared, maintained and used as previously described in Crescioli C, et al. Journal of Clinical and Endocrinology Metabolism (2000) 85 p 2576-2583, were obtained from prostate tissues derived from 5 patients, who underwent suprapubic adenomectomy for BPH, after informed consent and approval by the Local Ethical Committee.
For all cell proliferation assays, 4×10^4 BPH cells were seeded onto 12-well plates in their growth medium, starved in red- and serum-free medium containing 0.1% BSA for 24 h, and then treated with specific stimuli for 48 h. Cells in phenol red- and serum-free medium containing 0.1% BSA were used as controls. Thereafter, cells were trypsinized, and each experimental point was derived from hemocytometer counting, averaging at least six different fields for each well, as previously reported (see Crescioli C, et al. Journal of Clinical and Endocrinology Metabolism (2000) 85 p 2576-2583).
Growth assays were also carried out using a fixed concentration of androgens (10 nM) with or without vitamin-D analogs (1 nM, 10 nM) or the anti-androgens finasteride (F, 1 nM) and cyproterone acetate (Cyp, 100 nM. Growth assays were also performed using a fixed concentration of T (10 nM) or GFs (10 ng/ml) with or without the vitamin-D analogs. (10 nM).
In the same experiment, each experimental point was repeated in triplicate or quadruplicate and experiments were performed 3 times. Results are expressed as % variation (mean±SEM) over the maximal T or GF-induced stimulation.

A short description of data set [1]: MTD in CD1 mouse (highest non-hypercalcemic dose). Conditions: in vivo.
Data set [2] in a line: Determination of Maximum Tolerated Dose (MTD). As to conditions: for MTD at 4 days: female, C57BL/6, mouse, in vivo, po; for MTD compared with the corresponding dihydroxy (parent) compound: versus (1) or (3). As for the experimental part:
The maximum tolerated dose of the vitamin D3 compounds of the invention were determined in eight week-old female C57BL/6 mice (3 mice/group) dosed orally (0.1 ml/mouse) with various concentrations of Vitamin D3 analogs daily for four days. Analogs were formulated in miglyol for a final concentration of 0.01, 0.03, 0.1 0.3, 1, 3, 10, 30, 100 and 300 μg/kg when given at 0.1 ml/mouse p.o. daily. Blood for serum calcium assay was drawn by tail bleed on day five, the final day of the study.

For the next data set, the system named is IFN-γ production. The data set is described as follows: IFN-γ production in the mixed leukocyte response (MLR). In kind it is cell-based. Conditions: 120 h; allogeneic PBMC from 2 donors, 5 days, ELISA; read-out: INF-γ IC50. As for the experimental part:
Immature dendritic cells (DC) were prepared as described in Romani, N. et al. (Romani, N. et al. (1996) J. Immunol. Meth. 196:137). IFN-γ production by allogeneic T cell activation in the mixed leukocyte response (MLR) was determined as described in Penna, G., et al., J Immunol., 164: 2405-2411 (2000).
Briefly, peripheral blood mononuclear cells (PBMC) were separated from buffy coats by Ficoll gradient and the same number (3×10^5) of allogeneic PBMC from 2 different donors were co-cultured in 96-well flat-bottom plates. The vitamin D3 compounds were added to each of the cultures.
On the technique in general: ELISA stands for enzyme-linked immunosorbent assay.

“Also recorded” adds a separate entry of the source.

The IC50 is the point on the concentration scale where inhibition reaches its midpoint.

As for `C=C1/C(=C\C=C2/CCC[C@]3(C)C(C(C)CCCC(C)(C)O)=CCC23)CC(OC(C)=O)C[C@@H]1OC(C)=O` (some centres unmarked) [(11), 1,3-Di-O-acetyl-1,25-dihydroxy-16-ene-cholecalciferol], the IC50 with ECV (Homo sapiens) is 59.9 µM; in the data set on RT112 (Homo sapiens, RT-112, 72 h) it was 18 µM; in the data set on HT 1376 (Homo sapiens, HT-1376), greater than 100 µM; with RT4 (Homo sapiens, RT-4, 72 h), 75 µM; in the data set with NHEK (Homo sapiens, NHEK), 5 µM; with Human BPH cells, 0.759 nM. Further, in data set [1], the MTD is 0.001 mg/kg.
Take `CC(C/C=C\C(O)(C(F)(F)F)C(F)(F)F)C1=CCC2C(=CC=C3CC(O)CC(O)C3)CCCC12C` (centres unmarked) [(1), 1,25-dihydroxy-16,23Z-diene-26,27-hexafluoro-19-nor-cholecalciferol, reference compound]: the IC50 in the data set with ECV came to 58.7 µM; in the data set on RT112, 24 µM; in the data set on HT 1376, 56 µM; with RT4 it was 20 µM; with NHEK, 4.4 µM.
Regarding `CC(=O)OC1C/C(=C/C=C2\CCC[C@@]3(C)C2CCC3C2(CC#CC(C)(C)O)CC2)C[C@@H](OC(C)=O)C1` (some centres unmarked) [(24), 1,3-Di-O-acetyl-1,25-dihydroxy-20-cyclopropyl-23-yne-19-nor-cholecalciferol], the IC50 with ECV (Homo sapiens) was 21.5 µM; in the data set with RT112 (Homo sapiens, RT-112, 72 h), 18 µM; in the data set on HT 1376 (Homo sapiens, HT-1376) it was greater than 100 µM; with RT4 (Homo sapiens, RT-4, 72 h), 7 µM; in the data set on NHEK (Homo sapiens, NHEK), 6.8 µM.
Take `CC(=O)OC1C/C(=C/C=C2\CCC[C@@]3(C)C2CCC3C2(C/C=C/C(O)(C(F)(F)F)C(F)(F)F)CC2)C[C@@H](OC(C)=O)C1` (some centres unmarked) [(31), 1,3-Di-O-acetyl-1,25-dihydroxy-20-cyclopropyl-23E-ene-26,27-hexafluoro-19-nor-cholecalciferol]: the MTD at 4 days in data set [2] worked out at 0.3 µg/kg. Further, the IC50 in the data set on ECV (Homo sapiens) came to 24.3 µM; with RT112 (Homo sapiens, RT-112, 72 h), 7 µM; in the data set on HT 1376 (Homo sapiens, HT-1376), 68 µM; in the data set with RT4 (Homo sapiens, RT-4, 72 h), 9 µM; in the data set on NHEK (Homo sapiens, NHEK), 0.9 µM.
Turning to `C=C1/C(=C\C=C2/CCC[C@]3(C)C(C(C)CC#CC(OC(C)=O)(C(F)(F)F)C(F)(F)F)=CCC23)CC(OC(C)=O)C[C@@H]1OC(C)=O` (some centres unmarked) [(13), 1,3,25-Tri-O-acetyl-1,25-dihydroxy-16-ene-23-yne-26,27-hexafluoro-cholecalciferol], the MTD at 4 days in data set [2] stood at 3 µg/kg. In addition, the IC50 with IFN-γ production was 0.0401 nM; in the data set on ECV (Homo sapiens) it was greater than 100 µM; in the data set with RT112 (Homo sapiens, RT-112, 72 h), 17 µM; in the data set with RT4 (Homo sapiens, RT-4, 72 h), 95 µM; in the data set on NHEK (Homo sapiens, NHEK), 19.5 µM.
Take `CC(CC#CC(O)(C(F)(F)F)C(F)(F)F)C1=CCC2C(=CC=C3CC(O)CC(O)C3)CCCC12C` (centres unmarked) [(3), 1,25-dihydroxy-16-ene-23-yne-26,27-hexafluoro-19-nor-cholecalciferol, reference compound]: in data set [2] (female C57BL/6 mice, p.o. daily for four days, highest dose without hypercalcemia (serum calcium >10.7 mg/dl)), the “MTD (mice)” value is 0.3 µg/kg.
Take `CC(=O)OC1C/C(=C/C=C2\CCC[C@]3(C)C(C(C)CC#CC(O)(C(F)(F)F)C(F)(F)F)=CCC23)C[C@@H](OC(C)=O)C1` (some centres unmarked) [(4), 1,3-Di-O-acetyl-1,25-Dihydroxy-16-ene-23-yne-26,27-hexafluoro-19-nor-cholecalciferol]: the MTD at 4 days in data set [2] came to 10 µg/kg. In addition, the “MTD compared with the corresponding dihydroxy (parent) compound” value in [2] is “significantly higher; also recorded: considerably greater”. Further, the IC50 was 0.525 nM in the data set with IFN-γ production; 29 µM in the data set with ECV (Homo sapiens); 15 µM with RT112 (Homo sapiens, RT-112, 72 h); greater than 100 µM in the data set on HT 1376 (Homo sapiens, HT-1376); 9 µM in the data set with RT4 (Homo sapiens, RT-4, 72 h); 0.8 µM in the data set on NHEK (Homo sapiens, NHEK).
For `CC(=O)OC1C/C(=C/C=C2\CCC[C@]3(C)C(C(C)CC#CC(OC(C)=O)(C(F)(F)F)C(F)(F)F)=CCC23)C[C@@H](OC(C)=O)C1` (some centres unmarked) [(5), 1,3,25-Tri-O-acetyl-1,25-Dihydroxy-16-ene-23-yne-26,27-hexafluoro-19-nor-cholecalciferol], in data set [2], the MTD at 4 days was 3 µg/kg. In addition, the “MTD compared with the corresponding dihydroxy (parent) compound” value in data set [2] is “significantly higher; also recorded: considerably greater”. The IC50 is 0.499 nM in the data set with IFN-γ production; 32 µM in the data set on ECV (Homo sapiens); 13 µM with RT112 (Homo sapiens, RT-112, 72 h); greater than 100 µM in the data set on HT 1376 (Homo sapiens, HT-1376); 7 µM with RT4 (Homo sapiens, RT-4, 72 h); 25.6 µM in the data set on NHEK (Homo sapiens, NHEK).
As for `C=C1/C(=C\C=C2/CCC[C@]3(C)C(C4(CCCC(C)(C)O)CC4)=CCC23)CC(OC(C)=O)C[C@@H]1OC(C)=O` (stereo partly drawn) [(39), 1,3-Di-O-acetyl-1α,25-hydroxy-16-ene-20-cyclopropyl-cholecalciferol], in [2], the MTD at 4 days amounted to 3 µg/kg. Further, the IC50 in the data set with IFN-γ production came to 0.045 nM; in the data set with RT112 (Homo sapiens, RT-112, 72 h) it was 21.5 µM; in the data set on RT4 (Homo sapiens, RT-4, 72 h), 2.8 µM.
As to `C=C1/C(=C\C=C2/CCC[C@]3(C)C(C(C)C/C=C/[C@@](C)(O)C(F)(F)F)=CCC23)CC(OC(C)=O)C[C@@H]1OC(C)=O` (some centres unmarked) [(16), 1,3-Di-O-acetyl-1,25-dihydroxy-16,23E-diene-25R,26-trifluoro-cholecalciferol], the IC50 was 76.6 µM in the data set on ECV (Homo sapiens); 2 µM in the data set on RT112 (Homo sapiens, RT-112, 72 h); greater than 100 µM in the data set on HT 1376 (Homo sapiens, HT-1376); 16 µM in the data set on RT4 (Homo sapiens, RT-4, 72 h); 3.1 µM with NHEK (Homo sapiens, NHEK).
The like results for `CC(=O)OC1C/C(=C/C=C2\CCC[C@@]3(C)C2CCC3C2(C/C=C\C(O)(C(F)(F)F)C(F)(F)F)CC2)C[C@@H](OC(C)=O)C1` (some centres unmarked) [(33), 1,3-Di-O-acetyl-1,25-dihydroxy-20-cyclopropyl-23Z-ene-26,27-hexafluoro-19-nor-cholecalciferol] were, in that order, greater than 100 µM, 16 µM, greater than 100 µM, 18 µM and 0.9 µM.
As for `CC(=O)OC1C/C(=C/C=C2\CCC[C@]3(C)C(C(C)CC#CC(C)(C)O)=CCC23)C[C@@H](OC(C)=O)C1` (some centres unmarked) [(20), 1,3-Di-O-Acetyl-1,25-dihydroxy-16-ene-23-yne-19-nor-cholecalciferol], the IC50 was 26.7 µM in the data set on ECV (Homo sapiens); 1 µM with RT112 (Homo sapiens, RT-112, 72 h); greater than 100 µM with HT 1376 (Homo sapiens, HT-1376); 9 µM in the data set on RT4 (Homo sapiens, RT-4, 72 h); 6.7 µM in the data set with NHEK (Homo sapiens, NHEK). In addition, in [1], the MTD was 0.03 mg/kg.
In the case of `CC(=O)OC1C/C(=C/C=C2\CCC[C@]3(C)C(C4(CCCC(C)(C)O)CC4)=CCC23)C[C@@H](OC(C)=O)C1` (stereo partly drawn) [(37), 1,3-Di-O-acetyl-1α,25-dihydroxy-16-ene-20-cyclopropyl-19-nor-cholecalciferol], the MTD at 4 days in [2] was found to be 10 µg/kg. Also, the IC50 was 0.068 nM in the data set on IFN-γ production; 17.4 µM in the data set with RT112 (Homo sapiens, RT-112, 72 h); 3 µM with RT4 (Homo sapiens, RT-4, 72 h).
In data set [2], `CCC(O)(C#CCC(C)C1=CCC2/C(=C/C=C3/CC(OC(C)=O)C[C@H](OC(C)=O)C3)CCC[C@]12C)CC` (some centres unmarked) [(22), 1,3-Di-O-acetyl-1,25-dihydroxy-16-ene-23-yne-26,27-bishomo-19-nor-cholecalciferol] registered an MTD at 4 days of 100 µg/kg. Besides, the IC50 in the data set with IFN-γ production was 0.0253 nM; with ECV (Homo sapiens), 81.7 µM; with RT112 (Homo sapiens, RT-112, 72 h), 7 µM; with HT 1376 (Homo sapiens, HT-1376), greater than 100 µM; with RT4 (Homo sapiens, RT-4, 72 h) it was 9 µM; in the data set with NHEK (Homo sapiens, NHEK) it was 4.7 µM.
